Molecular target: T1, MDM2 (Homo sapiens, UniProt Q00987)
T1 construct: made in house
Assay: Inhibition test of MDM2-P53 (GST-MDM2, Biotin-P53, Anti-GST-Tb, SA-XL665)
Assay type: binding
In short: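 HTRF-type assay using 4 nM GST-MDM2 (final), Biotin-P53, SA-XL665 and anti-GST-Tb in PBS with 0.1% BSA, 5 mM DTT and 1 mM AEBSF. Compounds in 5-fold serial dilutions over twelve points; incubation 90 min at 25° C with shaking before plate-reader read-out.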

T1 sequence (Q00987 whole entry): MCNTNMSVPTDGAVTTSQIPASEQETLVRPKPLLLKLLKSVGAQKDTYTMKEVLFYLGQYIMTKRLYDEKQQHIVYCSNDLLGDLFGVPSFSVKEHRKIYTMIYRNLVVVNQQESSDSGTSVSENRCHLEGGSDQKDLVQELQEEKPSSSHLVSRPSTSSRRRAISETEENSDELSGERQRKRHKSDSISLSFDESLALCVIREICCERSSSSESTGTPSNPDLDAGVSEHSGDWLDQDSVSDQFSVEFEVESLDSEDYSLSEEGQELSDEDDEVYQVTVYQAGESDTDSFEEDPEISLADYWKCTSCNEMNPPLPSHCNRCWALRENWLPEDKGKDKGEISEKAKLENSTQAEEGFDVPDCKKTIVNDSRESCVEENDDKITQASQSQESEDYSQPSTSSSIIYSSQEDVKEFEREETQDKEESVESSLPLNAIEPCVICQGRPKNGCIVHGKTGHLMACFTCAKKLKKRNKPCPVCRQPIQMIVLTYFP

SMILES	IC50 [nM]
CCc1ccc(OC)c(-c2nc3c(n2C(C)C)[C@]2(C(=O)Nc4cc(Cl)ccc42)N(c2cc(Cl)ccc2C)C3=O)c1 [Example R-37, (R)-6-chloro-5′-(5-chloro-2-methylphenyl)-2′-(5-ethyl-2-methoxyphenyl)-3′-isopropyl-3′H-spiro[dihydroindole-3,4′-pyrrolo[3,4-d]imidazole]-2,6′(5′H)-dione]	3110
CCc1ccc(OC)c(-c2nc3c(n2C(C)C)[C@]2(C(=O)Nc4cc(Cl)ccc42)N(c2cccc(Cl)c2)C3=O)c1 [Example R-38, (R)-6-chloro-5′-(3-chlorophenyl)-2′-(5-ethyl-2-methoxyphenyl)-3′-isopropyl-3′H-spiro[dihydroindole-3,4′-pyrrolo[3,4-d]imidazole]-2,6′(5′H)-dione]	1120
COc1ccc(-c2nc3c(n2C(C)C)[C@]2(C(=O)Nc4cc(Cl)ccc42)N(c2cc(Cl)cn(C)c2=O)C3=O)c(OC)c1 [Example R-39, (R)-6-chloro-5′-(5-chloro-1-methyl-2-oxo-1,2-dihydropyridin-3-yl)-2′-(2,4-dimethoxyphenyl)-3′-isopropyl-3′H-spiro[dihydroindole-3,4′-pyrrolo[3,4-d]imidazole]-2,6′(5′H)-dione]	1850
COc1ncc(-c2nc3c(n2C2CCC2)[C@]2(C(=O)Nc4cc(Cl)ccc42)N(c2cc(Cl)ccc2C)C3=O)c(OC)n1 [Example R-41, (R)-6-chloro-5′-(5-chloro-2-methylphenyl)-3′-cyclobutyl-2′-(2,4-dimethoxypyrimidin-5-yl)-3′H-spiro[dihydroindole-3,4′-pyrrolo[3,4-d]imidazole]-2,6′(5′H)-dione]	7320
COc1ccccc1-c1nc2c(n1C(C)C)[C@]1(C(=O)Nc3cc(Cl)ccc31)N(c1cc(Cl)cn(C)c1=O)C2=O [Example R-43, (R)-6-chloro-5′-(5-chloro-1-methyl-2-oxo-1,2-dihydropyridin-3-yl)-3′-isopropyl-2′-(2-methoxyphenyl)-3′H-spiro[dihydroindole-3,4′-pyrrolo[3,4-d]imidazole]-2,6′(5′H)-dione]	130
CNC(=O)c1ccc(-c2nc3c(n2C(C)C)[C@]2(C(=O)Nc4cc(Cl)ccc42)N(c2cc(Cl)ccc2C)C3=O)c(OC)c1 [Example R-54, (R)-4-(6-chloro-5′-(5-chloro-2-methylphenyl)-3′-isopropyl-2,6′-dioxo-5′,6′-dihydro-3′H-spiro[dihydroindole-3,4′-pyrrolo[3,4-d]imidazole]-2′-yl)-3-methoxy-N-methylbenzamide]	1960
COc1ncc(-c2nc3c(n2C(C)C)[C@]2(C(=O)Nc4cc(Cl)ccc42)N(c2ccc(C(N)=O)c(Cl)c2)C3=O)c(OC)n1 [Example R-60, (R)-2-chloro-4-(6-chloro-2′-(2,4-dimethoxypyrimidin-5-yl)-3′-isopropyl-2,6′-dioxo-3′,6′-dihydro-5′H-spiro[dihydroindole-3,4′-pyrrolo[3,4-d]imidazole]-5′-yl)benzamide]	1070
COc1ccc(N2C(=O)c3nc(-c4ccccc4OC)n(C(C)C)c3[C@]23C(=O)Nc2cc(Cl)ccc23)cc1Cl [Example R-63, (R)-6-chloro-5′-(3-chloro-4-methoxyphenyl)-3′-isopropyl-2′-(2-methoxyphenyl)-3′H-spiro[dihydroindole-3,4′-pyrrolo[3,4-d]imidazole]-2,6′(5′H)-dione]	537
COc1ccc(-c2nc3c(n2C(C)C)[C@]2(C(=O)Nc4cc(Cl)ccc42)N(c2cc(Cl)ccc2C)C3=O)cc1 [Example R-64, (R)-6-chloro-5′-(5-chloro-2-methylphenyl)-3′-isopropyl-2′-(4-methoxyphenyl)-3′H-spiro[dihydroindole-3,4′-pyrrolo[3,4-d]imidazole]-2,6′(5′H)-dione]	1020
COc1cc(OC)c(-c2nc3c(n2C(C)C)[C@]2(C(=O)Nc4cc(Cl)ccc42)N(c2ccc(C(N)=O)c(Cl)c2)C3=O)cn1 [Example R-65, (R)-2-chloro-4-(6-chloro-2′-(4,6-dimethoxypyridin-3-yl)-3′-isopropyl-2,6′-dioxo-3′,6′-dihydro-5′H-spiro[dihydroindole-3,4′-pyrrolo[3,4-d]imidazole]-5′-yl)benzamide]	498
COc1cc(C(=O)N(C)C)ccc1-c1nc2c(n1C(C)C)[C@]1(C(=O)Nc3cc(Cl)ccc31)N(c1cc(Cl)ccc1C)C2=O [Example R-68, (R)-4-(6-chloro-5′-(5-chloro-2-methylphenyl)-3′-isopropyl-2,6′-dioxo-5′,6′-dihydro-3′H-spiro[dihydroindole-3,4′-pyrrolo[3,4-d]imidazole]-2′-yl)-3-methoxy-N,N-dimethylbenzamide]	657
COc1cc(N)ccc1-c1nc2c(n1C(C)C)[C@]1(C(=O)Nc3cc(Cl)ccc31)N(c1ccc(F)c(Cl)c1)C2=O [Example R-73, (R)-2′-(4-amino-2-methoxyphenyl)-6-chloro-5′-(3-chloro-4-fluorophenyl)-3′-isopropyl-3′H-spiro[dihydroindole-3,4′-pyrrolo[3,4-d]imidazole]-2,6′(5′H)-dione]	142
COc1c(F)cccc1-c1nc2c(n1C(C)C)[C@]1(C(=O)Nc3cc(Cl)ccc31)N(c1cc(Cl)ccc1C)C2=O [Example R-76, (R)-6-chloro-5′-(5-chloro-2-methylphenyl)-2′-(3-fluoro-2-methoxyphenyl)-3′-isopropyl-3′H-spiro[dihydroindole-3,4′-pyrrolo[3,4-d]imidazole]-2,6′(5′H)-dione]	579
COc1cc(C(N)=O)ccc1-c1nc2c(n1C(C)C)[C@]1(C(=O)Nc3cc(Cl)ccc31)N(c1cc(Cl)ccc1C)C2=O [Example R-77, (R)-4-(6-chloro-5′-(5-chloro-2-methylphenyl)-3′-isopropyl-2,6′-dioxo-5′,6′-dihydro-3′H-spiro[dihydroindole-3,4′-pyrrolo[3,4-d]imidazole]-2′-yl)-3-methoxybenzamide]	139
COc1cccc(OC)c1-c1nc2c(n1C(C)C)[C@]1(C(=O)Nc3cc(Cl)ccc31)N(c1cc(Cl)ccc1C)C2=O [Example R-79, (R)-6-chloro-5′-(5-chloro-2-methylphenyl)-2′-(2,6-dimethoxyphenyl)-3′-isopropyl-3′H-spiro[dihydroindole-3,4′-pyrrolo[3,4-d]imidazole]-2,6′(5′H)-dione]	285
COc1ccc(-c2nc3c(n2C(C)C)[C@]2(C(=O)Nc4cc(Cl)ccc42)N(c2cc(Cl)ccc2F)C3=O)c(OC)c1 [Example R-80, (R)-6-chloro-5′-(5-chloro-2-fluorophenyl)-2′-(2,4-dimethoxyphenyl)-3′-isopropyl-3′H-spiro[dihydroindole-3,4′-pyrrolo[3,4-d]imidazole]-2,6′(5′H)-dione]	363
COc1nc(N(C)C)ncc1-c1nc2c(n1C(C)C)[C@]1(C(=O)Nc3cc(Cl)ccc31)N(c1cc(Cl)ccc1C)C2=O [Example R-82, (R)-6-chloro-5′-(5-chloro-2-methylphenyl)-2′-(2-(dimethylamino)-4-methoxypyrimidin-5-yl)-3′-isopropyl-3′H-spiro[dihydroindole-3,4′-pyrrolo[3,4-d]imidazole]-2,6′(5′H)-dione]	394
COc1cc(C2CC2)ccc1-c1nc2c(n1C(C)C)[C@]1(C(=O)Nc3cc(Cl)ccc31)N(c1cc(Cl)ccc1C)C2=O [Example R-86, (R)-6-chloro-5′-(5-chloro-2-methylphenyl)-2′-(4-cyclopropyl-2-methoxyphenyl)-3′-isopropyl-3′H-spiro[dihydroindole-3,4′-pyrrolo[3,4-d]imidazole]-2,6′(5′H)-dione]	142
CCOc1ccc(-c2nc3c(n2C(C)C)[C@]2(C(=O)Nc4cc(Cl)ccc42)N(c2cc(Cl)ccc2C)C3=O)c(OC)c1 [Example R-88, (R)-6-chloro-5′-(5-chloro-2-methylphenyl)-2′-(4-ethoxy-2-methoxyphenyl)-3′-isopropyl-3′H-spiro[dihydroindole-3,4′-pyrrolo[3,4-d]imidazole]-2,6′(5′H)-dione]	399
COc1cc(C(C)C)ccc1-c1nc2c(n1C(C)C)[C@]1(C(=O)Nc3cc(Cl)ccc31)N(c1cc(Cl)cnc1C)C2=O [Example R-89, (R)-6-chloro-5′-(5-chloro-2-methylpyridin-3-yl)-3′-isopropyl-2′-(4-isopropyl-2-methoxyphenyl)-3′H-spiro[dihydroindole-3,4′-pyrrolo[3,4-d]imidazole]-2,6′(5′H)-dione]	569
COc1nc(N)ncc1-c1nc2c(n1C(C)C)[C@]1(C(=O)Nc3cc(Cl)ccc31)N(c1cc(Cl)ccc1C)C2=O [Example R-90, (R)-2′-(2-amino-4-methoxypyrimidin-5-yl)-6-chloro-5′-(5-chloro-2-methylphenyl)-3′-isopropyl-3′H-spiro[dihydroindole-3,4′-pyrrolo[3,4-d]imidazole]-2,6′(5′H)-dione]	310
COc1cc(C(C)C)ccc1-c1nc2c(n1C(C)C)[C@]1(C(=O)Nc3cc(Cl)ccc31)N(c1cccc(Cl)c1)C2=O [Example R-93, (R)-6-chloro-5′-(3-chlorophenyl)-3′-isopropyl-2′-(4-isopropyl-2-methoxyphenyl)-3′H-spiro[dihydroindole-3,4′-pyrrolo[3,4-d]imidazole]-2,6′(5′H)-dione]	658
CCOc1ccc(-c2nc3c(n2C(C)C)[C@]2(C(=O)Nc4cc(Cl)ccc42)N(c2cc(Cl)ccc2F)C3=O)c(OC)c1 [Example R-94, (R)-6-chloro-5′-(5-chloro-2-fluorophenyl)-2′-(4-ethoxy-2-methoxyphenyl)-3′-isopropyl-3′H-spiro[dihydroindole-3,4′-pyrrolo[3,4-d]imidazole]-2,6′(5′H)-dione]	840
COc1cc(OC(C)C)ncc1-c1nc2c(n1C(C)C)[C@]1(C(=O)Nc3cc(Cl)ccc31)N(c1cccc(Cl)c1)C2=O [Example R-95, (R)-6-chloro-5′-(3-chlorophenyl)-2′-(6-isopropoxy-4-methoxypyridin-3-yl)-3′-isopropyl-3′H-spiro[dihydroindole-3,4′-pyrrolo[3,4-d]imidazole]-2,6′(5′H)-dione]	1670
